Laboratory results taken from publication PMC6278385, “Preclinical Pharmacokinetics of C118P, a Novel Prodrug of Microtubules Inhibitor and Its Metabolite C118 in Mice, Rats, and Dogs” (Molecules, 2018).

Experiment: Tissue distribution in tumor bearing mice
Format: in vivo, nude mice (BALB/cA) implanted with NCI-H460 tumor
Conditions: n=4
Description: The nude mice (BALB/cA) implanted with NCI-H460 tumor were provided by Shanghai Institute of Materia Medica. A total of 36 mice were divided into 9 groups with four animals in each group. After fasting overnight with free access to water, the mice were treated with 75 mg/kg C118P by i.v. The blood samples were collected at 2, 10, 20, 40 min, 1, 2, 4, 8, 12 h after treatment and the mice were anaesthetized and decapitated to obtain the blood and tumor tissue. Blood, brain, muscle, ovary, and lung from mice in the PK study were collected at 10 min, 1, 4, and 12 h. Tissues were cleaned by absorbent filter paper to remove the blood. Bloods were centrifuged at 10,000× g for 5 min. Each tissue (0.2 g) was homogenized with 2 mL water. The plasma samples and the homogenates were then processed and determined by the method described above. The concentration was determined by the calibration curve and the actual concentration was corrected by multiplying by 10 according to the dilution times. […]
4. The distribution of CA4P and CA4 in tumor bearing mice.
The nude mice (BALB/cA) implanted with NCI-H460 tumor were provided by Shanghai institute of Materia Medica. A total of 36 mice were divided into 9 groups with 4 animals in each group.
After fasted overnight with free access to water, the mice were treated with 75 mg/kg CA4P by i.v.
The blood samples were collected at 2, 10, 20, 40 min, 1, 2, 4, 8, 12 h after treatment and the mice were anaesthetized and decapitated to obtain the blood and tumor tissue. All procedure are same as C118P in the main text. The concentration was determined by the calibration curve and the actual concentration was corrected by multiplying by 10 according to the dilution times.

[1] = 0.17 h after i.v. 75 mg/kg of CA4P
[2] = 1 h after i.v. 75 mg/kg of CA4P
[3] = 4 h after i.v. 75 mg/kg of CA4P
[4] = 12 h after i.v. 75 mg/kg of CA4P

Row | Structure (SMILES) | concentration in Plasma [1] | concentration in Tumor [1] | concentration in muscle [1] | concentration in Plasma [2] | concentration in Tumor [2] | concentration in Plasma [3] | concentration in Tumor [3] | concentration in Plasma [4] | concentration in Lung [1] | concentration in brain [1] | concentration in ovary [1] | concentration in Lung [2] | concentration in brain [2] | concentration in muscle [2] | concentration in ovary [2] | concentration in Lung [3] | concentration in brain [3] | concentration in muscle [3] | concentration in Tumor [4] | concentration in muscle [4]
1 | COc1ccc(/C=C\c2cc(OC)c(OC)c(OC)c2)cc1OP(=O)([O-])[O-].[Na+].[Na+] [CA4P, CA4 phosphate, reference compound] | 15879.9±4473.5 | 142.8±49.2 | 345.2±68.9 | 324.9±105.2 | 26.5±1.4 | 15.0±6.8 | 34.5±1.9 | 12.6±3.3 |  |  |  |  |  |  |  |  |  |  |  | 
2 | COc1ccc(/C=C\c2cc(OC)c(OC)c(OC)c2)cc1O [CA4, Combretastain A4, reference compound] | 12540.3±972.6 | 9835.7±1345.9 | 8526.1±3505.7 | 595.8±277.7 | 4803.9±770.6 | 21.1±4.5 | 3677.0±1079.9 |  | 5849.0±580.7 | 16165.3±1211.9 | 44183.5±13169.9 | 759.4±242.6 | 2135.9±486.2 | 595.6±308.4 | 1288.3±711.2 | 106.8±12.1 | 97.6±21.3 | 142.0±33.9 | 735.1±426.2 | 51.9±36.8
